The term inhibition denotes the change of the read-out against control, counted positive when it falls.

In the assay the test system is Influenza A virus. Put plainly: Inhibition of Influenza A virus AM2-S31N mutant proton channel expressed in Xenopus laevis frog oocytes at 100 uM after 2 mins by electrophysiological two-electrode voltage clamp assay. Type of assay: cell-based. For orientation: Two-electrode voltage clamp is typically applied to oocytes expressing channels or transporters.
Regarding `C[Si](C)(C)c1ccc(CNC23CC4CC(CC(O)(C4)C2)C3)cc1`, the inhibition came to 86.7%.

`C[Si](C)(C)c1ccc(CNC23CC4CC(CC(C4)C2)C3)cc1`: the inhibition turned out to be 77.5%. On to `CC(C)(C)c1ccc(CNC23CC4CC(CC(C4)C2)C3)cc1`, for which the inhibition is 72.6%. `C[Si](C)(c1ccccc1)c1ccc(CNC23CC4CC(CC(O)(C4)C2)C3)cc1` gave an inhibition of 84.9%. In the case of `CC(C)[Si](c1ccc(CNC23CC4CC(CC(O)(C4)C2)C3)cc1)(C(C)C)C(C)C` it was 33.6%. `CC(C)(C)c1ccc(CNC23CC4CC(CC(O)(C4)C2)C3)cc1` gave an inhibition of 75.4%. Under `C[Si](C)(C)c1ccc(CNC23CC4CC(CC(C4)C2)C3)nc1` stands 81.3%.

The record behind these values is ChEMBL document CHEMBL4033658, “Design and expeditious synthesis of organosilanes as potent antivirals targeting multidrug-resistant influenza A viruses” (Eur J Med Chem, 2017).
